Holding throughout (format): in vivo
In experiment [1] the test system is Cotton Aphid (aphis gossypii), Mixed Life Stages. The experiment in a line: Cotton aphid, mixed life stages, infested cotyledon dip test. The following applies: 300 ppm; comparative test. As to the method:
(§1) In the following tests, if not precised otherwise, the formulated solutions of some of the compound examples were diluted to an active ingredient concentration of 300 ppm, and the diluted solutions were applied in the below mentioned tests.
The active compounds were formulated in 50:50 acteone/water and 100 ppm Kinetic™ surfactant
Cotton plants at the cotyledon stage were infested prior to treatment by placing a heavily infested leaf from the main aphid colony on top of each cotyledon. The aphids were allowed to transfer overnight and the host leaf was removed. The infested cotyledons were then dipped and agitated in the test solution for 3 seconds and allowed to dry in a fume hood. Test plants were maintained under fluorescent lighting in a 24-hr photoperiod at 25° C. and 20-40% relative humidity. Aphid mortality on the treated plants, relative to mortality on untreated check plants, was determined after 5 days.
(§2) The biological activity in tables B.1 and B.2 was evaluated on scale range from 0% as showing no biological activity to 100% as having total control. The comparative biological tests were conducted as described above.

The subject of experiment [2] is Silverleaf Whitefly (Bemisia argentifolii). The experiment in a line: Silverleaf whitefly, cotton cotyledon dip test. The following applies: for biological activity (0% no activity to 100% total control), Bemesia argentifolia: 300 ppm, comparative test; for mortality at 100 ppm: Bemisia argentifolii, 72 h, 3 days after treatment, adults on cotton cotyledons, read-out: mortality compared to untreated controls (silverleaf whitefly). As for the experimental part:
as §1
(§3) The active compounds were formulated in 50:50 acetone:water and 100 ppm Kinetic™ surfactant.
Selected cotton plants were grown to the cotyledon state (one plant per pot). The cotyledons were dipped into the test solution to provide complete coverage of the foliage and placed in a well-vented area to dry. Each pot with treated seedling was placed in a plastic cup and 10 to 12 whitefly adults (approximately 3-5 day old) were introduced. The insects were colleted using an aspirator and an 0.6 cm, non-toxic TygonO tubing (R-3603) connected to a barrier pipette tip. The tip, containing the collected insects, was then gently inserted into the soil containing the treated plant, allowing insects to crawl out of the tip to reach the foliage for feeding. The cups were covered with a reusable screened lid (150 micron mesh polyester screen PeCap from Tetko Inc). Test plants were maintained in the holding room at about 25° C. and 20-40% relative humidity for 3 days avoiding direct exposure to the fluorescent light (24 hour photoperiod) to prevent trapping of heat inside the cup. Mortality was assessed 3 days after treatment of the plants.
as §2

Experiment [3] has as its system Green Peach Aphid (Myzus persicae), Mixed Life Stages. Nature of the experiment: Green peach aphid, mixed life stages, bell pepper leaf dip test. The following applies: 300 ppm; comparative test. As for the experimental part: as §1
Bell pepper plants at the first true-leaf stage were infested prior to treatment by placing heavily infested leaves from the main aphid colony on top of the treatment plants. The aphids were allowed to transfer overnight to accomplish an infestation of 30-40 aphids per plant and the host leaves were removed. The infested leaves of the test plants were then dipped and agitated in the test solution for 3 seconds and allowed to dry in a fume hood. Test plants were maintained under fluorescent lighting in a 24-hr photoperiod at 25° C. and 20-40% relative humidity. Aphid mortality on the treated plants, relative to mortality on untreated check plants, was determined after 5 days.
as §2

In experiment [4] the test system is Rice Plant Hopper (Nilaparvata lugens). Nature of the experiment: Rice plant hopper, sprayed rice seedlings. The following applies: for biological activity (0% no activity to 100% total control), Nilaparvata lugens: 300 ppm, comparative test; for mortality at 100 ppm: Nilaparvata lugens, after 72 hours, rice seedlings sprayed, 10 adults. As to the method:
as §1
Rice seedlings were cleaned and washed 24 hours before spraying. The active compounds were formulated in 50:50 acetone:water and 0.1% vol/vol surfactant (EL 620) was added. Potted rice seedlings were sprayed with 5 ml test solution, air dried, placed in cages and inoculated with 10 adults. Treated rice plants were kept at 28-29° C. and relative humidity of 50-60%. Percent mortality was recorded after 72 hours.
as §2

Experiment [5] concerns Cowpea Aphid (aphis craccivora). The experiment in a line: Cowpea aphid, sprayed potted cowpea plants. The following applies: population reduction recorded after 24, 72 and 120 hours. As for the experimental part: as §1
The active compounds were formulated in 50:50 acetone:water. Potted cowpea plants colonized with 100-150 aphids of various stages were sprayed after the pest population has been recorded. Population reduction was recorded after 24, 72, and 120 hours.

The test system of experiment [6] is Rice Green Leafhopper (Nephotettix virescens). The experiment in a line: Rice green leafhopper, sprayed rice seedlings. Conditions: after 72 hours, 10 adults. As for the experimental part: as §1
Rice seedlings were cleaned and washed 24 hours before spraying. The active compounds were formulated in 50:50 acetone:water, and 0.1% vol/vol surfactant (EL 620) was added. Potted rice seedlings were sprayed with 5 ml test solution, air dried, placed in cages and inoculated with 10 adults. Treated rice plants were kept at 28-29° C. and relative humidity of 50-60%. Percent mortality was recorded after 72 hours.

Experiment [7] relates to Southern Armyworm (spodoptera eridania), 2nd-3rd Instar Larvae. Nature of the experiment: Southern armyworm, lima bean foliage dip test. Conditions: for biological activity (0% no activity to 100% total control), Spodoptera eridania: 300 ppm, comparative test. As for the experimental part: as §1
The active compounds were formulated as a 10.000 ppm solution in a mixture of 35% acetone and water, which was diluted with water, if needed.
Sieva lima bean foliage, expanded to the first true leaves, were dipped and agitated in the test solution for 3 seconds and then allowed to dry in a fume hood. The treated plant was then placed in 25-cm plastic perforated zip enclosure bags, ten 2nd-instar larvae were added, and the bags sealed. After 4 days, observations were made of mortality, plant feeding, and of any interference with larval growth.
as §2

Experiment [8] has as its system Colorado Potato Beetle (Leptinotarsa decemlineata). Nature of the experiment: Colorado potato beetle, potato leaf dip test. The following applies: foliar, 120 h, 5 days after treatment, larvae on dipped potato leaves, read-out: mortality compared to untreated controls (Colorado potato beetle). As to the method: as §1
Potato plants were utilized for bioassays. Excised plant leaves were dipped into 1:1 acetone/water dilutions of the active compounds. After the leaves had dried, they were individually placed onto water-moistened filter paper on the bottoms of Petri dishes.
Each dish was infested with 5-7 larvae and covered with a lid. Each treatment dilution was replicated 4 times. Test dishes were held at approximately 27° C. and 60% humidity. Numbers of live and morbid larvae were assessed in each dish at 5 days after treatment application, and mortality percentage was calculated.

The test system of another experiment is Bean Aphid (aphis fabae). Nature of the experiment: Bean aphid, nasturtium plant dip test. The following applies: 72 h, after 3 days, nasturtium plants dipped. As to the method:
as §1, §3
Nasturtium plants grown in Metro mix in the 1st leaf-pair stage (variety ‘Mixed Jewle’) were infested with approximately 2-30 laboratory-reared aphids by placing infested cut plants on top of the test plants. The cut plants were removed after 24 hr. Each plant was dipped into the test solution to provide complete coverage of the foliage, stem, protruding seed surface and surrounding cube surface and allowed to dry in the fume hood. The treated plants were kept at about 25° C. with continuous fluorescent light. Aphid mortality was determined after 3 days.

The values that follow come from patent US8242123B2, “Insecticidal methods using 4-amino-5-chloro-thieno[2,3-d]-pyrimidine compounds” (Merial Limited, priority 2006, dated 2012).

For orientation: mortality means the share of the test organisms that died.

`C[C@H](Nc1ncnc2scc(Cl)c12)c1ccccc1` [reference compound]: in experiment [1], the “biological activity (0% no activity to 100% total control), Aphis gossypii” value was 100%. For the same molecule, in experiment [2], the “biological activity (0% no activity to 100% total control), Bemesia argentifolia” value was found to be 0%. Further, the “biological activity (0% no activity to 100% total control), Myzus persicae” value in [3] came out at 100%. The “biological activity (0% no activity to 100% total control), Nilaparvata lugens” value in experiment [4] is 0%.

In the case of `FC(F)(F)Oc1ccc(CCNc2ncnc3scc(Cl)c23)cc1` [Compound 5, (5-Chloro-thieno[2,3-d]pyrimidin-4-yl)-[2-(4-trifluoromethoxy-phenyl)-ethyl]-amine], the mortality at 100 ppm in [2] was ≥ 90%; in experiment [5] it was ≥ 75%; in [6], ≥ 60%; in experiment [7] (Spodoptera eridania, foliar, 96 h, 100 ppm, after 4 days, lima bean foliage dipped, read-out: mortality in comparison with untreated controls (southern armyworm)), ≥ 60%; in experiment [4] it was ≥ 90%; in [8], ≥ 90%.

For `CC(Nc1ncnc2scc(Cl)c12)c1ccc(OC(F)(F)F)cc1` (centres unmarked) [Compound 2, (5-Chloro-thieno[2,3-d]pyrimidin-4-yl)-[1-(4-trifluoromethoxy-phenyl)-ethyl]-amine], the mortality at 100 ppm in experiment [2] is ≥ 90%; in the experiment on Bean Aphid (aphis fabae), ≥ 60%; in experiment [5] it was ≥ 75%; in experiment [6], ≥ 60%; in experiment [4] it was ≥ 90%; in experiment [8], ≥ 90%.

On to `CC(C)(C)[C@H]1CC[C@@H](Nc2ncnc3scc(Cl)c23)CC1` [Compound 6, cis-(4-tert-Butyl-cyclohexyl)-(5-chloro-thieno[2,3-d]pyrimidin-4-yl)-amine], for which the mortality at 100 ppm was ≥ 90% in experiment [2]; ≥ 60% in the experiment on Bean Aphid (aphis fabae); ≥ 75% in experiment [5]; ≥ 60% in [6]; ≥ 90% in experiment [4]; ≥ 90% in [8].

As for `CC(C)(C)[C@H]1CC[C@@H](Nc2ncnc3scc(Cl)c23)CC1` [drawing 15], the “biological activity (0% no activity to 100% total control), Aphis gossypii” value in [1] is 100%. Besides, the “biological activity (0% no activity to 100% total control), Bemesia argentifolia” value in experiment [2] stood at 100%. Also, the “biological activity (0% no activity to 100% total control), Spodoptera eridania” value in experiment [7] is reported as 100%. Also, the “biological activity (0% no activity to 100% total control), Myzus persicae” value in [3] is recorded as 100%. In experiment [4], the “biological activity (0% no activity to 100% total control), Nilaparvata lugens” value is reported as 100%.

For `[H][C@H]1CC[C@H](Nc2ncnc3scc(Cl)c23)CC1` [reference compound], the “biological activity (0% no activity to 100% total control), Aphis gossypii” value in [1] is on record as 75%. In addition, the “biological activity (0% no activity to 100% total control), Bemesia argentifolia” value in experiment [2] worked out at 0%. In addition, the “biological activity (0% no activity to 100% total control), Spodoptera eridania” value in [7] is 0%. The “biological activity (0% no activity to 100% total control), Myzus persicae” value in experiment [3] is 50%. In addition, in experiment [4], the “biological activity (0% no activity to 100% total control), Nilaparvata lugens” value was found to be 0%.
